Experimental data reported in patent US10190093B2, “Artificial oocyte activation” (The Curators of the University of Missouri, priority 2013, dated 2019).
Marks after values point to notes of the source that are not given here.

Legend:
MII oocytes = assay: Intracellular calcium measurement (fura-2); assay type: cell-based, pig; conditions: oocytes incubated with thimerosal, positive control
Protocol: The zonae pellucidae were removed after maturation and zona-free oocytes were loaded with the Ca^2+ indicator dye, fura-2. For this purpose, they were incubated in the presence of […] of the acetoxymethyl ester form of the dye and 0.02% pluronic F-127 for 40-50 min (both from Invitrogen). The dye loaded oocytes were transferred into a chamber with a cover-glass bottom and the chamber was then placed on the heated stage of an inverted microscope. Changes in the intracellular free Ca^2+ concentration were recorded using InCytIm2, a dual-wavelength fluorescence imaging system (Intracellular Imaging, Inc.; Cincinnati, Ohio). During measurements the emitted fluorescence was detected at 510 nm after exciting the dye alternately at 340 and 380 nm. The ratio of the two emitted fluorescence intensities was calculated and the data are presented as fluorescence ratio values. Ratios of 1.0 and 5.0 correspond to about 100 and 1,200 nM Ca^2+, respectively. In each treatment group the measurements were repeated at least 5 times using different oocytes.

SCNT embryos = assay: In vitro development of SCNT embryos treated with Scriptaid or TPEN; assay type: cell-based, pig; conditions: SCNT + Scriptaid
Protocol: Activated oocytes were washed three times in PZM3 then incubated at 38.5° C., 5% CO2 until the embryos were examined on either day 2, 6 or 7. At the end of the culture, where applicable, the frequency of cleaved embryos and blastocysts, and total cell number in the blastocysts were recorded. Hoechst 33342 (1.2 mg/mL) was used to stain nuclei and the embryos were then evaluated by epi-fluorescence microscopy.
Next, the optimal concentration and duration of TPEN ([…], 30 min) was used to artificially activate reconstructed SCNT embryos. […] Thus lower concentrations of TPEN (5-10 μM) can enhance embryo development when introduced after conventional oocyte activation.

SMILES	intracellular Ca2+ increase (MII oocytes)	% blastocysts (SCNT embryos)
C[CH2][Hg][S]c1ccccc1C(=O)[O-].[Na+] [thimerosal]	could induce Ca^2+ increase	
O=C(CCCCCN1C(=O)c2cccc3cccc(c23)C1=O)NO [Scriptaid]		22.7%^b
